Measurements from patent US20060052404A1, “Pharmaceutical formulations comprising substituted xanthine compounds” (priority 2001, published 2006).

How the values were obtained:
[1] = test system: human epithelial cell line expressing the CFTR-ΔF508 mutation; settings: cells having the CFTR-ΔF508 mutation; cited from earlier work
[2] = CPX absorption profile in rats, water vs corn oil formulation, single oral gavage; assay type: in vivo; settings: rat, 1.4 mg/kg single oral gavage, during the course of the experiment
Protocol: Experimental—This study was designed to determine the pharmacokinetics of CPX bioavailability in blood plasma following a single oral administration by oral gavage to male Sprague-Dawley rats. The CPX compound was suspended in either a corn oil or water formulation and administered once via oral gavage at 10 ml/kg of rat weight to two groups of male Sprague-Dawley rats.
The rats were not fasted prior to blood collection. Approximately 0.4 ml of whole blood was collected from each animal into heparinized tubes via puncture of the orbital sinus under 70% CO2/30% O2 anesthesia. Approximately 0.2 ml of plasma was separated by centrifugation and analyzed for CPX concentration using high performance liquid chromatography (HPLC) with mass spectrometric detection. Following the completion of blood collection, all surviving animals were euthanized by carbon dioxide overdose.
Rat plasma CPX concentration as a function of time (in hours) using the two formulations was measured. Each rat in this experiment (n=10) received a 1.4 mg/kg CPX dose, which was equivalent to a 100 mg dose. Ten rats were used at each time point to generate a mean CPX concentration value.

[3] = CPX absorption profiles of four suspension formulations in dogs, single oral dose; assay type: in vivo, male Beagle dogs; settings: dog, 30 mg/kg oral
Protocol: Experimental—This study was designed to determine the relative bioavailability of a single oral CPX dose when administered by gavage to male Beagle dogs. The CPX dosages was administered in a single 30 mg/kg oral dose in four different suspension formulations. These suspension formulations were: • 1) xanthan gum (homogenized), • 2) sodium carboxymethylcellulose [NaCMC] (homogenized), • 3) sodium carboxymethylcellulose [NaCMC] (non-homogenized), and • 4) corn oil (homogenized).
Each formulation contained CPX at a nominal concentration of 60 mg/gram of suspension. […]
Whole blood samples were collected (approx. 3 ml/sample) by jugular venipuncture into sodium heparin-containing collection tubes. […] The whole blood was centrifuged to isolate plasma, and concentrations of CPX in the plasma at these time intervals were determined using high performance liquid chromatography (HPLC) with mass spectrometric detection, with a lower quantitation limit of 1 ng/ml.
The following pharmacokinetic parameters were determined for each experimental CPX formulation: • Cmax—maximum analyte concentration in the plasma, ng/ml • Tmax—time of maximum analyte concentration in the plasma • T1/2—terminal half-life of the drug • AUClast—area under the curve (AUC) from time 0 to the last measurable concentration. […] Expressed as ng·h/ml AUC(0∞)—area under the curve from time 0 to infinity (also written AUCinf or AUC∞)

[4] = Solubility of CPX in solvents tested; assay type: physicochemical; settings: any of the solvents tested, despite use of co-solvents
Source text: This EXAMPLE describes the CPX formulations used in the present invention. Adequate solubility of CPX was unattainable in any of the solvents tested, even despite the use of co-solvents. This insolubility necessitated the use of the suspension and capsule formulations, as described below. One formulation was left non-homogenized to study the effect of homogenization on bioavailability.

[5] = Mutagenicity and adverse side effects of oral doses in animal model systems; assay type: in vivo; settings: oral doses to rat, guinea pig, mouse or dog model systems
[6] = Adverse side effects of oral doses in human subjects; assay type: in vivo; settings: oral doses to human subjects
[7] = test system: cell derived from a cystic fibrosis patient; settings: cited from earlier work
isolated CFTR channels = isolated CFTR channels (Homo sapiens, UniProt P13569); settings: in vitro lipid bilayers; cited from earlier work
isolated CFTR channels, sequence (P13569 whole entry): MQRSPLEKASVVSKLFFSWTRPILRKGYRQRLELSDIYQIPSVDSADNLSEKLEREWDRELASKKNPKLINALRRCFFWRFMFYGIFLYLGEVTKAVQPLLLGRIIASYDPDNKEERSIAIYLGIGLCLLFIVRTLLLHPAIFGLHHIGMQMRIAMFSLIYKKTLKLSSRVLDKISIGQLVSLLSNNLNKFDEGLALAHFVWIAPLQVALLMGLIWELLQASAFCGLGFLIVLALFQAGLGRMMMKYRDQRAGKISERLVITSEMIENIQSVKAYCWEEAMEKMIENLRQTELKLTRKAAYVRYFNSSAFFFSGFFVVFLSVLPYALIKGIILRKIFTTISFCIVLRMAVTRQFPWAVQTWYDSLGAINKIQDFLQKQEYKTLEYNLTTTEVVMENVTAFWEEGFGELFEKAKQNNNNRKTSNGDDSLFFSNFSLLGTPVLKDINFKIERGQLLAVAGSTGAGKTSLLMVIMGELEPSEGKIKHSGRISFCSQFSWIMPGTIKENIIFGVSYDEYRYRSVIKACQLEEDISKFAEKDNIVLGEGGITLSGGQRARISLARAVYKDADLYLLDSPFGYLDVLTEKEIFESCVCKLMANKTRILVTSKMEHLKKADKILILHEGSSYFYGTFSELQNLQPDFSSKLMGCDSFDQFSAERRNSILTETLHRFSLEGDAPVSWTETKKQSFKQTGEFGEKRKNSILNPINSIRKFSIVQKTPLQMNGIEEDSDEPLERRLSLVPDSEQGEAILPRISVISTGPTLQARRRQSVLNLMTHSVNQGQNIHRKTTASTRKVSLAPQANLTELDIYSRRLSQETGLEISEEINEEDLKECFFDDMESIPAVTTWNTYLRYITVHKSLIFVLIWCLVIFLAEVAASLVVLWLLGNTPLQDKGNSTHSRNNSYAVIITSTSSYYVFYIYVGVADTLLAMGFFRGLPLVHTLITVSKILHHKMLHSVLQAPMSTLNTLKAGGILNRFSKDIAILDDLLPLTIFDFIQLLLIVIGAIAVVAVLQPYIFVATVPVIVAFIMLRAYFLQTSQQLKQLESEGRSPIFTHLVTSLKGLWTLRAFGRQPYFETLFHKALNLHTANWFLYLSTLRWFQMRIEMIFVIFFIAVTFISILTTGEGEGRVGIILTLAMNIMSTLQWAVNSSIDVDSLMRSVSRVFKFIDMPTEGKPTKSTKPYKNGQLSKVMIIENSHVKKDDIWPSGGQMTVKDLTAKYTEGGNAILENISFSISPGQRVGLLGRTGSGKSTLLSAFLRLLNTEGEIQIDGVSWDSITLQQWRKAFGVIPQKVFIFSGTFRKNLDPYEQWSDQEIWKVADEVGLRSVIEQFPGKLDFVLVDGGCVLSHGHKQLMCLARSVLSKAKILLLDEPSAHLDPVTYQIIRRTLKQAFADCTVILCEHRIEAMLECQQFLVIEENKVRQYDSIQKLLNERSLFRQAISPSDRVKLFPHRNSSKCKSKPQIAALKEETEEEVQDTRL

NBF-1 region of CFTR = NBF-1 region of CFTR (Homo sapiens, UniProt P13569); settings: cited from earlier work
NBF-1 region of CFTR, sequence (P13569 423-646 limits assumed): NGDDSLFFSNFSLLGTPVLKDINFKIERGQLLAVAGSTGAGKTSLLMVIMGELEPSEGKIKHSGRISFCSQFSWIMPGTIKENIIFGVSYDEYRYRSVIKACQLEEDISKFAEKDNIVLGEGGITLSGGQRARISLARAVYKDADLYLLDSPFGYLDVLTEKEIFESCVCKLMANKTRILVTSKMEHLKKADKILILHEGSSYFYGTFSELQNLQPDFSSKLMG

CFTR-ΔF508 NBF-1 = CFTR-ΔF508 NBF-1 (Homo sapiens, UniProt P13569, DEL508-508); settings: cited from earlier work
CFTR-ΔF508 NBF-1, sequence (P13569 with tags, fused parts or gaps DEL508-508 limits assumed): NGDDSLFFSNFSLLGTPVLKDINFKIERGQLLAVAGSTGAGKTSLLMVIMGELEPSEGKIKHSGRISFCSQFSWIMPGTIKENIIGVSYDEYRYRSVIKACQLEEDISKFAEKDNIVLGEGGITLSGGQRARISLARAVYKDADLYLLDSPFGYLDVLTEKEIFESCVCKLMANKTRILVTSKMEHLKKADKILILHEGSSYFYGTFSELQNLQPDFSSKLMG

CFTR-ΔF508 = CFTR-ΔF508 (Homo sapiens, UniProt P13569, DEL508-508); settings: cited from earlier work
CFTR-ΔF508, sequence (P13569 with tags, fused parts or gaps DEL508-508): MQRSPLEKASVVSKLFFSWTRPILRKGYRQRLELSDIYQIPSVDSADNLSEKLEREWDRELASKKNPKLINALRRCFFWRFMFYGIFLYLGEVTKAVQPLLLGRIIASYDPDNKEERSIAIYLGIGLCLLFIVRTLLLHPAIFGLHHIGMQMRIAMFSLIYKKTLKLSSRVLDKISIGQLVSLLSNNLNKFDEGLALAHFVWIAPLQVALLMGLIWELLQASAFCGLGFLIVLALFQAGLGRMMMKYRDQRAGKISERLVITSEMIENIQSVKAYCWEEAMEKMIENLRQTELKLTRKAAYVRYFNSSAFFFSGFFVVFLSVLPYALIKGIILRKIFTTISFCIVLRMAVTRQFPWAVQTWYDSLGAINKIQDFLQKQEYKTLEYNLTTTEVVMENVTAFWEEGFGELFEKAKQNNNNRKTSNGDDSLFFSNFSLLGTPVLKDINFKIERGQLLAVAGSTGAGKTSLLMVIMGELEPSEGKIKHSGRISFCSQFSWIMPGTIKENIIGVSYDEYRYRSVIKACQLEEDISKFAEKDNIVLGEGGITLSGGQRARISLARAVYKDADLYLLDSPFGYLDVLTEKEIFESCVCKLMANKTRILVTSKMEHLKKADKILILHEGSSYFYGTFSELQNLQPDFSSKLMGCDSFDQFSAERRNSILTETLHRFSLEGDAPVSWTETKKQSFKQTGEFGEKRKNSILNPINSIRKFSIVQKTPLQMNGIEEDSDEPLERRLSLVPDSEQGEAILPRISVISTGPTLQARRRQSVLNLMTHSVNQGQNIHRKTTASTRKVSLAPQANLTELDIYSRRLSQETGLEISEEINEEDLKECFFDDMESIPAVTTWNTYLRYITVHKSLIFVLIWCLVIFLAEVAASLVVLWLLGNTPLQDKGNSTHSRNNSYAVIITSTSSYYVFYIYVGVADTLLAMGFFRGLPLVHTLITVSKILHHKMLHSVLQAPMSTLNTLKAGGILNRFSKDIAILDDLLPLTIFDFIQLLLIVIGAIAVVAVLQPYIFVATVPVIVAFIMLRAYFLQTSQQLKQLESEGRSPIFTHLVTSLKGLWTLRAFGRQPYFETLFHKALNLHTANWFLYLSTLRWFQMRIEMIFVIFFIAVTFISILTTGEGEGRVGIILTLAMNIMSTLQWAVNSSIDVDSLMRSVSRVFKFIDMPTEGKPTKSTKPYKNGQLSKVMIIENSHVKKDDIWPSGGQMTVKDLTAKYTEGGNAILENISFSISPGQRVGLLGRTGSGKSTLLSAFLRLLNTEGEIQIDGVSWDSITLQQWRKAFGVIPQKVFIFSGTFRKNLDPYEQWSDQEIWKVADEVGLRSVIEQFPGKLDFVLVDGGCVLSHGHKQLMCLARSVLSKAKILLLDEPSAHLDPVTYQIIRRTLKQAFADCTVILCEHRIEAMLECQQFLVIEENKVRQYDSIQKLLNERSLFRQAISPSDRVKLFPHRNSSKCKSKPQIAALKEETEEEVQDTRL

A1 adenosine receptor = biological target: T1, A1 adenosine receptor (Homo sapiens, UniProt P30542); settings: cited from earlier work
T1 sequence (P30542 1-326): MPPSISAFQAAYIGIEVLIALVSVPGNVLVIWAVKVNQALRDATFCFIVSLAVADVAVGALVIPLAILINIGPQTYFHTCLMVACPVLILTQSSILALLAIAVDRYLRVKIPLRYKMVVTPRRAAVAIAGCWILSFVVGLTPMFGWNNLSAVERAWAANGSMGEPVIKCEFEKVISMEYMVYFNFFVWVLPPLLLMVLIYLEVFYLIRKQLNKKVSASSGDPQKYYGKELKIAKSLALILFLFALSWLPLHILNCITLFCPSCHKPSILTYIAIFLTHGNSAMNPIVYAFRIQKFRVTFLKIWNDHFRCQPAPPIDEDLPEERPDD

## 1,3-dipropyl-7-methylcyclopenthylxanthine [DP-CPX]
[1]
  chloride efflux: activating chloride ion efflux

## Cn1c(=O)c2c(nc(C3CCCCC3)n2C)n(C)c1=O [CHC, cyclohexylcaffeine]
[1]
  chloride efflux: activating chloride ion efflux

## CCCn1c(=O)c2[nH]c(C3CCCC3)nc2n(CCC)c1=O [CPX, 1,3-dipropyl-8-cyclopentylxanthine]
[2]
  mortality or signs of morbidity: no mortality or signs of morbidity
[3]
  time of measured peak concentrations of CPX in the plasma after oral dosing: ≤ 5 h
[4]
  adequate solubility: unattainable
[5]
  mutagenicity or grossly apparent adverse side effects: does not appear to display any mutagenicity or grossly apparent adverse side effects
[6]
  apparent adverse side effects: no apparent adverse side effects
[7]
  chloride efflux: activates
Isolated CFTR channels
  activation of isolated CFTR channels: activates
NBF-1 region of CFTR
  binding to the NBF-1 region of CFTR: binds
CFTR-ΔF508 NBF-1
  affinity for CFTR-ΔF508 NBF-1 versus wild-type CFTR NBF-1: greater
CFTR-ΔF508
  intracellular trafficking and maturation of CFTR-ΔF508: enhances
A1 adenosine receptor
  A1 adenosine receptor antagonism: potent
[1]
  chloride efflux: promotes chloride efflux

## C=CCn1c(=O)c2[nH]c(C3CCCCC3)nc2n(CC=C)c1=O [DAX, N,N-diallylcyclohexylxanthine]
[1]
  chloride efflux: activating chloride ion efflux

## CCCn1c(=O)c2[nH]c(-c3ccc(OCC(=O)NCCN)cc3)nc2n(CCC)c1=O [xanthine amino congener]
[1]
  chloride efflux: activating chloride ion efflux
